Assay results: patent publication US11236129B2, “IL-17A binding peptides and medical uses thereof” (Dompe' Farmaceutici S.P.A., priority 2018, dated 2022)
Residues, ends and D or L forms follow the SMILES beside them.

Target: IL-17RA/IL17RC dimerization induced by IL-17A (Homo sapiens, UniProt Q16552)
Assay: IL-17RA/IL17RC dimerization assay in response to IL-17A (PathHunter Cytokine Receptor Assay)
Assay type: cell-based
Conditions: IL-17A at EC80; read-out: IC50 in IL-17RA/IL7RC dimerization assay
How it was run: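 Receptor dimerization was read as chemiluminescence from complemented β-galactosidase after IL-17A at EC80 concentration for 6–16 h at 37 °C. Peptides were added 60 min before agonist, at 37 °C or room temperature, with 1% vehicle. Percent inhibition used the EC80-stimulated and vehicle wells as references.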

Chain of IL-17RA/IL17RC dimerization induced by IL-17A (Q16552 24-155): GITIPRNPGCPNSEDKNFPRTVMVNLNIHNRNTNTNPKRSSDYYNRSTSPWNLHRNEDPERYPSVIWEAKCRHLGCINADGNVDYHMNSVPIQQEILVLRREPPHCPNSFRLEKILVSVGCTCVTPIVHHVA

| SMILES | IC50 [µM] |
| --- | --- |
| CC[C@H](C)[C@H](NC(C)=O)C(=O)N[C@@H](Cc1ccc(O)cc1)C(=O)N[C@H](C(=O)N[C@H](C(=O)N[C@H](C(=O)N1CCC[C@H]1C(=O)N[C@@H](C)C(=O)N[C@@H](CC(=O)O)C(=O)N[C@@H](CC(C)C)C(=O)N[C@@H](Cc1c[nH]c2ccccc12)C(=O)N[C@@H](CC(=O)O)C(=O)N[C@@H](Cc1c[nH]c2ccccc12)C(=O)N[C@H](C(=O)N[C@@H](CC(N)=O)C(=O)N[C@@H](CCCCN)C(N)=O)[C@@H](C)CC)[C@@H](C)CC)[C@@H](C)O)C(C)C [SEQ ID NO: 166] (Ac-IYVTIPADLWDWINK-NH2) | < 10 |
| CC[C@H](C)[C@H](NC(C)=O)C(=O)N[C@@H](Cc1c[nH]cn1)C(=O)NCC(=O)N[C@H](C(=O)N[C@H](C(=O)N1CCC[C@H]1C(=O)N[C@@H](C)C(=O)N[C@@H](CC(=O)O)C(=O)N[C@@H](CC(C)C)C(=O)N[C@@H](Cc1c[nH]c2ccccc12)C(=O)N[C@@H](CC(=O)O)C(=O)N[C@@H](Cc1c[nH]c2ccccc12)C(=O)N[C@H](C(=O)N[C@@H](CC(N)=O)C(=O)N[C@@H](CCCCN)C(N)=O)[C@@H](C)CC)[C@@H](C)CC)[C@@H](C)O [SEQ ID NO: 168] (Ac-IHGTIPADLWDWINK-NH2) | < 10 |
| CC[C@H](C)[C@H](NC(C)=O)C(=O)N[C@@H](Cc1c[nH]cn1)C(=O)N1CCC[C@H]1C(=O)N[C@H](C(=O)N[C@H](C(=O)N1CCC[C@H]1C(=O)N[C@@H](C)C(=O)N[C@@H](CC(=O)O)C(=O)N[C@@H](CC(C)C)C(=O)N[C@@H](Cc1c[nH]c2ccccc12)C(=O)N[C@@H](CC(=O)O)C(=O)N[C@@H](Cc1c[nH]c2ccccc12)C(=O)N[C@H](C(=O)N[C@@H](CC(N)=O)C(=O)N[C@@H](CCCCN)C(N)=O)[C@@H](C)CC)[C@@H](C)CC)[C@@H](C)O [SEQ ID NO: 170] (Ac-IHPTIPADLWDWINK-NH2) | < 10 |
| CC[C@H](C)[C@H](NC(C)=O)C(=O)N[C@@H](Cc1c[nH]cn1)C(=O)N[C@H](C(=O)N[C@@H](CO)C(=O)N[C@H](C(=O)N1CCC[C@H]1C(=O)N[C@@H](C)C(=O)N[C@@H](CC(=O)O)C(=O)N[C@@H](CC(C)C)C(=O)N[C@@H](Cc1c[nH]c2ccccc12)C(=O)N[C@@H](CC(=O)O)C(=O)N[C@@H](Cc1c[nH]c2ccccc12)C(=O)N[C@H](C(=O)N[C@@H](CC(N)=O)C(=O)N[C@@H](CCCCN)C(N)=O)[C@@H](C)CC)[C@@H](C)CC)C(C)C [SEQ ID NO: 175] (Ac-IHVSIPADLWDWINK-NH2) | < 10 |
| CC[C@H](C)[C@H](NC(C)=O)C(=O)N[C@@H](Cc1c[nH]cn1)C(=O)N[C@H](C(=O)N[C@@H](CC(N)=O)C(=O)N[C@H](C(=O)N1CCC[C@H]1C(=O)N[C@@H](C)C(=O)N[C@@H](CC(=O)O)C(=O)N[C@@H](CC(C)C)C(=O)N[C@@H](Cc1c[nH]c2ccccc12)C(=O)N[C@@H](CC(=O)O)C(=O)N[C@@H](Cc1c[nH]c2ccccc12)C(=O)N[C@H](C(=O)N[C@@H](CC(N)=O)C(=O)N[C@@H](CCCCN)C(N)=O)[C@@H](C)CC)[C@@H](C)CC)C(C)C [SEQ ID NO: 177] (Ac-IHVNIPADLWDWINK-NH2) | < 10 |

Continued, values first:

| IC50 [µM] | SMILES |
| --- | --- |
| < 10 | CC[C@H](C)[C@H](NC(C)=O)C(=O)N[C@@H](Cc1c[nH]cn1)C(=O)N[C@@H](C)C(=O)N[C@H](C(=O)N[C@H](C(=O)N1CCC[C@H]1C(=O)N[C@@H](C)C(=O)N[C@@H](CC(=O)O)C(=O)N[C@@H](CC(C)C)C(=O)N[C@@H](Cc1c[nH]c2ccccc12)C(=O)N[C@@H](CC(=O)O)C(=O)N[C@@H](Cc1c[nH]c2ccccc12)C(=O)N[C@H](C(=O)N[C@@H](CC(N)=O)C(=O)N[C@@H](CCCCN)C(N)=O)[C@@H](C)CC)[C@@H](C)CC)[C@@H](C)O [SEQ ID NO: 167] (Ac-IHATIPADLWDWINK-NH2) |
| < 10 | CC[C@H](C)[C@H](NC(C)=O)C(=O)N[C@@H](Cc1c[nH]cn1)C(=O)N[C@@H](CC(C)C)C(=O)N[C@H](C(=O)N[C@H](C(=O)N1CCC[C@H]1C(=O)N[C@@H](C)C(=O)N[C@@H](CC(=O)O)C(=O)N[C@@H](CC(C)C)C(=O)N[C@@H](Cc1c[nH]c2ccccc12)C(=O)N[C@@H](CC(=O)O)C(=O)N[C@@H](Cc1c[nH]c2ccccc12)C(=O)N[C@H](C(=O)N[C@@H](CC(N)=O)C(=O)N[C@@H](CCCCN)C(N)=O)[C@@H](C)CC)[C@@H](C)CC)[C@@H](C)O [SEQ ID NO: 169] (Ac-IHLTIPADLWDWINK-NH2) |
| < 10 | CC[C@H](C)[C@H](NC(C)=O)C(=O)N[C@@H](Cc1c[nH]cn1)C(=O)N[C@H](C(=O)N[C@H](C(=O)N[C@H](C(=O)N1CCC[C@H]1C(=O)N[C@@H](C)C(=O)N[C@@H](CC(=O)O)C(=O)N[C@@H](CC(C)C)C(=O)N[C@@H](Cc1c[nH]c2ccccc12)C(=O)N[C@@H](CC(=O)O)C(=O)N[C@@H](Cc1c[nH]c2ccccc12)C(=O)N[C@H](C(=O)N[C@@H](CC(N)=O)C(=O)N[C@@H](CCCCN)C(N)=O)[C@@H](C)CC)[C@@H](C)CC)[C@@H](C)O)[C@@H](C)CC [SEQ ID NO: 171] (Ac-IHITIPADLWDWINK-NH2) |
| < 10 | CC[C@H](C)[C@H](NC(C)=O)C(=O)N[C@@H](Cc1c[nH]cn1)C(=O)N[C@@H](Cc1ccc(O)cc1)C(=O)N[C@H](C(=O)N[C@H](C(=O)N1CCC[C@H]1C(=O)N[C@@H](C)C(=O)N[C@@H](CC(=O)O)C(=O)N[C@@H](CC(C)C)C(=O)N[C@@H](Cc1c[nH]c2ccccc12)C(=O)N[C@@H](CC(=O)O)C(=O)N[C@@H](Cc1c[nH]c2ccccc12)C(=O)N[C@H](C(=O)N[C@@H](CC(N)=O)C(=O)N[C@@H](CCCCN)C(N)=O)[C@@H](C)CC)[C@@H](C)CC)[C@@H](C)O [SEQ ID NO: 172] (Ac-IHYTIPADLWDWINK-NH2) |
| < 10 | CC[C@H](C)[C@H](NC(C)=O)C(=O)N[C@@H](Cc1c[nH]cn1)C(=O)N[C@@H](Cc1c[nH]c2ccccc12)C(=O)N[C@H](C(=O)N[C@H](C(=O)N1CCC[C@H]1C(=O)N[C@@H](C)C(=O)N[C@@H](CC(=O)O)C(=O)N[C@@H](CC(C)C)C(=O)N[C@@H](Cc1c[nH]c2ccccc12)C(=O)N[C@@H](CC(=O)O)C(=O)N[C@@H](Cc1c[nH]c2ccccc12)C(=O)N[C@H](C(=O)N[C@@H](CC(N)=O)C(=O)N[C@@H](CCCCN)C(N)=O)[C@@H](C)CC)[C@@H](C)CC)[C@@H](C)O [SEQ ID NO: 173] (Ac-IHWTIPADLWDWINK-NH2) |
| < 10 | CC[C@H](C)[C@H](NC(C)=O)C(=O)N[C@@H](Cc1c[nH]cn1)C(=O)N[C@@H](Cc1ccccc1)C(=O)N[C@H](C(=O)N[C@H](C(=O)N1CCC[C@H]1C(=O)N[C@@H](C)C(=O)N[C@@H](CC(=O)O)C(=O)N[C@@H](CC(C)C)C(=O)N[C@@H](Cc1c[nH]c2ccccc12)C(=O)N[C@@H](CC(=O)O)C(=O)N[C@@H](Cc1c[nH]c2ccccc12)C(=O)N[C@H](C(=O)N[C@@H](CC(N)=O)C(=O)N[C@@H](CCCCN)C(N)=O)[C@@H](C)CC)[C@@H](C)CC)[C@@H](C)O [SEQ ID NO: 174] (Ac-IHFTIPADLWDWINK-NH2) |
| < 10 | CC[C@H](C)[C@H](NC(C)=O)C(=O)N[C@@H](Cc1c[nH]cn1)C(=O)N[C@H](C(=O)N[C@@H](Cc1ccc(O)cc1)C(=O)N[C@H](C(=O)N1CCC[C@H]1C(=O)N[C@@H](C)C(=O)N[C@@H](CC(=O)O)C(=O)N[C@@H](CC(C)C)C(=O)N[C@@H](Cc1c[nH]c2ccccc12)C(=O)N[C@@H](CC(=O)O)C(=O)N[C@@H](Cc1c[nH]c2ccccc12)C(=O)N[C@H](C(=O)N[C@@H](CC(N)=O)C(=O)N[C@@H](CCCCN)C(N)=O)[C@@H](C)CC)[C@@H](C)CC)C(C)C [SEQ ID NO: 176] (Ac-IHVYIPADLWDWINK-NH2) |
